Measurements: patent US10501455B2, “Inhibitors of leukotriene A4 hydrolase” (Celtaxsys, Inc., priority 2013, dated 2019)

Key:
LTA4-h [1] = target: T1, LTA4-h (Homo sapiens, UniProt P09960); assay: Peptidase (aminopeptidase) assay; format: biochemical
T1 sequence (P09960 1-611): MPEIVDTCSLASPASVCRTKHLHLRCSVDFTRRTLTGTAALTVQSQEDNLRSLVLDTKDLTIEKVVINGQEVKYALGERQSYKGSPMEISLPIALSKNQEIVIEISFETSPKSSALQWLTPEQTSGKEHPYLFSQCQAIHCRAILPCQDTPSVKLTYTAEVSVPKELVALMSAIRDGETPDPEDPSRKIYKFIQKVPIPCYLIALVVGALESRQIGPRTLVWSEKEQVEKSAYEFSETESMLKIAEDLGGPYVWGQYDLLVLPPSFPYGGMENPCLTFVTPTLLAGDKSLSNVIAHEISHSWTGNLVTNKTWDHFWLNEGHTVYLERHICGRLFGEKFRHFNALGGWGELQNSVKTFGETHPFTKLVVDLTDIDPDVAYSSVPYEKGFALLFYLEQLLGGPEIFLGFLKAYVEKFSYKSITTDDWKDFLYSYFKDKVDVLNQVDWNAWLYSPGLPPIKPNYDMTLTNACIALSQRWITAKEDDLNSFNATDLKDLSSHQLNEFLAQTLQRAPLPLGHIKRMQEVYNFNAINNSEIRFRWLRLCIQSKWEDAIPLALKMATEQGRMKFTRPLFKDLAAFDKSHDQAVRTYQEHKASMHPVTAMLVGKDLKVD
Protocol: Since LTA4-h hydrolase is grouped with the M1 family of zinc metalloproteases (see, Rudberg, P. C. et al., J. Biol. […] The whole blood and aminopeptidase assays were performed as described in Penning et al., J. Med.

LTA4-h [2] = target: T1, LTA4-h; assay: Hydrolase assay (hydrolase-homogeneous time resolved fluorescence, LTB4 produced); format: biochemical
Source text: The compounds of the invention can be tested for their ability to inhibit LTA4-h by various known assays and by assays described herein. For example, the compounds can be tested for their ability to inhibit LTA4-h activity by assaying the compounds in the hydrolase-homogeneous time resolved fluoroescence assay. This assay, which is a two-step assay, measures the hydrolysis of […] to LTB4 by analyzing the amount of LTB4 produced. The first step involves the enzymatic conversion of […] to LTB4 and the second step involves the quantification of the […] with a homogeneous time resolved fluoroescence assay.
(§1) The whole blood and aminopeptidase assays were performed as described in Penning et al., J. Med. Chem. 2000, 43, 721-735, and Rudberg et al., J. Biol. Chem. Vol. 279, No. 26, Issue of June 25, pp. 27376-27382, 2004, the contents of each of which are expressly incorporated by reference herein. The hydrolase assay was performed as described in U.S. Pat. No. 7,737,145, the contents of which are expressly incorporated herein.

LTA4-h hydrolase = target: T2, LTA4-h hydrolase (Homo sapiens, UniProt P09960); assay: Whole blood assay (WBA); format: cell-based
T2 construct: endogenous in cells; host or cells: whole blood
T2 sequence (P09960 1-611): T1 sequence (P09960 1-611)
Protocol: as §1, with “Compounds of the invention can also be tested for their ability as inhibitors of LTA4-h hydrolase in the whole blood assay using human, mouse, rat or dog whole blood (see Penning, T. D. et al., J. Med. Chem. (2000), 43(4): 721-735 for a description of a human whole blood assay and a mouse whole blood assay, the contents of which are expressly incorporated herein). […] The whole” for “The whole”

LTA4-h [3] = target: T3, LTA4-h (Mus musculus, UniProt P24527); details: oral administration, mouse blood ex vivo; cited from earlier work
T3 construct: host or cells: mouse blood ex vivo
T3 sequence (P24527 1-611): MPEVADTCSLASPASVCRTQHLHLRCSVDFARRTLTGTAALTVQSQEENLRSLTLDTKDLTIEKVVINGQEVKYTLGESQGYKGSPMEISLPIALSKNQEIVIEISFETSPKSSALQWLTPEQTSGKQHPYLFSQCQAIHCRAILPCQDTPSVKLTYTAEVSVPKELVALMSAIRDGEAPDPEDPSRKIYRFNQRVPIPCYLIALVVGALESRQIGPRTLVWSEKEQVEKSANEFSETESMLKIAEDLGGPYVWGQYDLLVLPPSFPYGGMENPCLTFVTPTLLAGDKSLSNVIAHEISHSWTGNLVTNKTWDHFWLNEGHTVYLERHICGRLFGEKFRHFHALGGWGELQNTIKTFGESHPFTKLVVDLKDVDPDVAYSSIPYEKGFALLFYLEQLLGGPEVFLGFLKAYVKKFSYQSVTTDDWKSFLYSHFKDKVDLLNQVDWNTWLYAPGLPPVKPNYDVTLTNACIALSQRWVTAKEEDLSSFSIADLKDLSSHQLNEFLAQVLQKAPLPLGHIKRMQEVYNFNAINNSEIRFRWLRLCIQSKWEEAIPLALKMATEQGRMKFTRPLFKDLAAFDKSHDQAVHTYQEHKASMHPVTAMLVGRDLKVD

LTA4-h [4] = target: T4, LTA4-h (Rattus norvegicus, UniProt P30349); details: oral administration, rat peritoneum in vivo; cited from earlier work
T4 construct: host or cells: rat peritoneum in vivo
T4 sequence (P30349 1-611): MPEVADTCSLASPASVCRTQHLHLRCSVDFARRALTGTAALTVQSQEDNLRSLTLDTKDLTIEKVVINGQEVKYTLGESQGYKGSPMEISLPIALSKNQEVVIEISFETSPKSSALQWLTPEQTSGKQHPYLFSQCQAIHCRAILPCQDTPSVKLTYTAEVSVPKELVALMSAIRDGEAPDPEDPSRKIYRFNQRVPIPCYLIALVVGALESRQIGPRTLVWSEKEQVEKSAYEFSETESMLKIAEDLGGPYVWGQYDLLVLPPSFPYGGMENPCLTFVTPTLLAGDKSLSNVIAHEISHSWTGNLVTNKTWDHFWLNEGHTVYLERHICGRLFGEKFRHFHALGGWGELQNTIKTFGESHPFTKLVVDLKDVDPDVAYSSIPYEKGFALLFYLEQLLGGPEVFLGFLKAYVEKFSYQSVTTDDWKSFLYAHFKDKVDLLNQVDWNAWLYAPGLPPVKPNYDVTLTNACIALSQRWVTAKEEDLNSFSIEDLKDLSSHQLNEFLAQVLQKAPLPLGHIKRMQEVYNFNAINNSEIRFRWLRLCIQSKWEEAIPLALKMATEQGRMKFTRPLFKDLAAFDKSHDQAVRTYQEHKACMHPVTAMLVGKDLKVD

colitis = details: eight weeks of treatment, cotton top tamarins; cited from earlier work

| SMILES | IC50 (LTA4-h [1]) | IC50 (LTA4-h [2]) | IC50 (LTA4-h hydrolase) | inhibition of ionophore-induced LTB4 production (LTA4-h [3]) | inhibition of ionophore-induced LTB4 production (LTA4-h [4]) | colitis symptoms (colitis) |
| --- | --- | --- | --- | --- | --- | --- |
| Clc1ccc(Oc2ccc(NCC3CCNC3)cc2)cc1 (centres unmarked) [Compound 1] | 45 nM | 26 nM | 510 nM |  |  |  |
| Clc1ccc(Oc2ccc(NCC3CCCCN3)cc2)cc1 (centres unmarked) [Compound 2] | 72 nM | 190 nM | 880 nM |  |  |  |
| O=C(O)c1ccc(CN2CCC(CN(Cc3ccc(C(=O)O)cc3)c3ccc(Oc4ccc(Cl)cc4)cc3)C2)cc1 (centres unmarked) [Compound 3] | 88 nM | 300 nM | > 3000 nM |  |  |  |
| Clc1ccc(Oc2ccc(NCC3CNC3)cc2)cc1 [Compound 4] | 1.7 nM | 7.9 nM | 90 nM |  |  |  |
| Clc1ccc(Oc2ccc(NC3CNC3)cc2)cc1 [Compound 5] | 31 nM | 300 nM | 920 nM |  |  |  |
| Clc1ccc(Oc2ccc(NC3CC4CCC(C3)N4)cc2)cc1 (centres unmarked) [Compound 6] | 160 nM | 360 nM | 1900 nM |  |  |  |
| O=C(O)c1ccc(CN2CC(Nc3ccc(Oc4ccc(Cl)cc4)cc3)C2)cc1 [Compound 7] | 4 nM | 5 nM | 57 nM |  |  |  |
| COC(=O)c1ccc(CN(CC2CCNC2)c2ccc(Oc3ccc(Cl)cc3)cc2)cc1 (centres unmarked) [Compound 10] | 13 nM | 22 nM | 260 nM |  |  |  |
| O=C(O)c1ccc(CN(CC2CCNC2)c2ccc(Oc3ccc(Cl)cc3)cc2)cc1 (centres unmarked) [Compound 11] | 140 nM | 70 nM | 670 nM |  |  |  |
| COC(=O)c1ccc(CN(CC2CCN(C)C2)c2ccc(Oc3ccc(Cl)cc3)cc2)cc1 (centres unmarked) [Compound 12] | 150 nM | 70 nM | 240 nM |  |  |  |
| COC(=O)c1ccc(CN(CC2CCN(Cc3ccc(F)cc3)C2)c2ccc(Oc3ccc(Cl)cc3)cc2)cc1 (centres unmarked) [Compound 13] | 100 nM |  | 2770 nM |  |  |  |
| CN1CCC(CN(Cc2ccc(C(=O)O)cc2)c2ccc(Oc3ccc(Cl)cc3)cc2)C1 (centres unmarked) [Compound 15] | 290 nM | 470 nM | 560 nM |  |  |  |
| CN1CCC(CN(Cc2ccc(F)cc2)c2ccc(Oc3ccc(Cl)cc3)cc2)C1 (centres unmarked) [Compound 20] | 165 nM | 140 nM | 950 nM |  |  |  |
| O=C(O)c1ccc(CN2CCC(CN(Cc3ccccc3)c3ccc(Oc4ccc(Cl)cc4)cc3)C2)cc1 (centres unmarked) [Compound 25] | 370 nM | 1550 nM | 520 nM |  |  |  |
| COC(=O)c1ccc(CN(CC2CNC2)c2ccc(Oc3ccc(Cl)cc3)cc2)cc1 [Compound 28] | 46 nM | 170 nM | 800 nM |  |  |  |
| O=C(O)CN(CC1CCNC1)c1ccc(Oc2ccc(Cl)cc2)cc1 (centres unmarked) [Compound 29] | 22 nM | 320 nM | 920 nM |  |  |  |
| O=C(O)c1ccc(CN(CC2CNC2)c2ccc(Oc3ccc(Cl)cc3)cc2)cc1 [Compound 30] | 240 nM | 1000 nM | 1600 nM |  |  |  |
| CC(C)(C)OC(=O)N1CCC(CN(Cc2ccc(S(N)(=O)=O)cc2)c2ccc(Oc3ccc(Cl)cc3)cc2)C1 (centres unmarked) [Compound 32] | 12 nM | 1300 nM | 2800 nM |  |  |  |
| CN(CCCOc1ccc(Cc2ccccc2)cc1)CCC(=O)O.Cl [SC57461] |  |  |  | caused inhibition | caused inhibition | significantly improved colitis symptoms |
